Read-outs that look alike come from different tables or passages of the source.
How the values were obtained:
S. maltophilia DHFR = S. maltophilia DHFR (Stenotrophomonas maltophilia, UniProt B2FPG1); assay type: biochemical; conditions: for Km: partially purified S. maltophilia DHFR, substrate
Method: For the DHFR extraction, S. maltophilia strain number 1, was inoculated onto fresh agar 24 h before using. Then, liquid medium was inoculated with the strain and these broth cultures were incubated at 37° C. and shaken at 100 cycles per min. Solid medium was MacConkey agar (Oxoid Ltd., Basingstoke, England). Liquid medium was Brilliant Green Bile 2% broth (Oxoid). Bacteria were grown to mid-log phase, harvested by centrifugation (1,600 rpm 30 min) and washed twice in 50 mM phosphate buffer (pH 7.0) followed each time by a new centrifugation (1,600 rpm 5 min). Cell lysis, centrifugation, and dialysis were carried out between 4 and 8° C. Fast protein liquid chromatography (FPLC) purification steps were performed at room temperature. […] After centrifugation at 36,000 rpm for 30 min to remove cell debris, the supernatant was filtered. This supernatant was brought to 40% saturation with solid ammonium sulfate under continuous stirring. After 1 h the solution was centrifuged at 35,000 rpm for 30 min and the pellet discarded. Additional ammonium sulfate was added to the clear supernatant to give 90% saturation and stirred for 1 h. After centrifugation, the precipitates were suspended in 2 ml of buffer B (10 mM potassium phosphate buffer, pH 7.4, 2 mM β-mercaptoethanol). Concentrated enzyme (2 ml samples) was loaded onto a […] gel-filtration column (Sephacryl S-75 16/60 Hi-Prep, Amersham Pharmacia Biotech Europe GmbH, Barcelona, Spain), equilibrated with buffer B and eluted at 0.5 ml/min. The active fractions were concentrated and stored at −80° C. until used.
Initial velocity inhibition experiments were carried out for the inhibition studies of S. maltophilia with TMP and EGCG. One substrate (NADPH) was held constant at saturating concentration while the other substrate (DHF) and the inhibitor (TMP or EGCG) were varied. To prevent the oxidation of EGCG the reaction mixture contained 1 mM N-acetylcysteine (Sigma). For MTX inhibition the slow development of […] inhibition was determined by continuously monitoring the disappearance of NADPH and DHF after initiation of the reaction by the addition of DHFR. Reaction mixtures contained buffer, NADPH (100 μM), DHF (20 μM), and various concentrations of MTX. The extent of recovery of enzymatic activity following inhibition induced by preincubation with DHFR inhibitors was determined as follows. DHFR was preincubated for 30 min at 25° C. in the buffer mixture containing MTX, TMP or EGCG. An aliquot of the incubation mixture was then diluted 500-fold into a reaction mixture containing buffer mixture, NADPH (100 μM), and DHF (20 μM). Recovery of enzyme activity was followed by continuous monitoring at 340 nm.
Provided that the concentration of free inhibitor is not substantially altered by the formation of an enzyme-NADPH-inhibitor complex, the progress curve for the inhibition in the presence of saturating NADPH can be described by Eqn. 1 (as above): P=vst+(v0−vs)(1−exp(−kobst))/kobs • where vs, v0 and kobs represent the steady-state velocity, initial velocity and apparent first-order rate constant, respectively. The apparent first-order rate constant is related to the inhibitor concentration by Eqn. 2, where Ki denotes the dissociation constants for the initial binding of MTX to the enzyme-NADPH complex. [formula]

bovine liver DHFR = target: T1, bovine liver DHFR (Bos taurus, UniProt P00376); experiment: Kinetic analysis of inhibition of bovine liver DHFR; assay type: biochemical
T1 construct: from tissue; host or cells: bovine liver
T1 sequence (P00376 1-187): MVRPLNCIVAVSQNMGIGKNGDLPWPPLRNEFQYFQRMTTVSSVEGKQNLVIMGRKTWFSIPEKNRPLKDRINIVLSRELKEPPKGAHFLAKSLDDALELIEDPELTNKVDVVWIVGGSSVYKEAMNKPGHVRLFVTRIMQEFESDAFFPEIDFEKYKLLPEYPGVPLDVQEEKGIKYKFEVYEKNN
Method: The activity of DHFR was determined at 25° C. by following the decrease of NADPH and DHF by absorbance measurements at 340 nm (ε=11,800 M^−1 cm^−1) by using a Perkin-Elmer Lambda-2 spectrophotometer with cuvettes of 1.0 cm light-path.
Experiments were performed at pH 7.58 and 25° C. in a buffer containing 2-(N-morpholino)ethanesulfonic acid (MES, 25 mM), sodium acetate (25 mM), tris(hydroxymethyl)aminomethane (Tris 50 mM), and NaCl (100 mM). To prevent the oxidation of catechins, the reaction mixture contained 1 mM ascorbic acid. The pH of the reaction was measured before and after of the experiment. The assays were started by the addition of enzyme. In the absence of the enzyme, the rate of change of absorbance was negligible. […]
Progress curves for the slow, tight-binding inhibition of bovine liver DHFR by EGCG were determined by continuously monitoring the disappearance of NADPH and DHF after initiation of the reaction by the addition of 3.3 nM enzyme. Reaction mixtures contained buffer, NADPH (100 μM), DHF (20 μM) and EGCG. Assuming that the concentration of free inhibitor is not substantially altered by the formation of an enzyme-NADPH-inhibitor complex, the progress curve for the inhibition in the presence of saturating NADPH is described by Eqn. (1): P=vst+(v0−vs)(1−exp(−k′t))/k′
where vs, v0 and k′ represent the steady-state velocity, initial velocity and apparent first-order rate constant, respectively.
The values of k′ at different EGCG concentrations were obtained by non-linear regression analysis of the progress curves. KI and KI* denote the respective dissociation constants for the initial and equilibrium binding of inhibitors to the enzyme-NADPH complex (FIG. 5).

[1] = target: T2, recombinant human DHFR (rHDHFR) (Homo sapiens, UniProt P00374); experiment: Inhibition of human DHFR by tea catechins; assay type: biochemical
T2 sequence (P00374 1-187): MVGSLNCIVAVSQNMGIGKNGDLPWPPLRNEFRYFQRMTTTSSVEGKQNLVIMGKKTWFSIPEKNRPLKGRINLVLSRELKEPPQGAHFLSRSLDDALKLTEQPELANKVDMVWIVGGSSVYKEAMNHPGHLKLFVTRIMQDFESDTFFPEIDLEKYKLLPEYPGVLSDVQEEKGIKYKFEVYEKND

p16 = p16 methylation status in Caco-2 cells; conditions: EGCG 20 μM, 7-days treatment
L1210 cells = experiment: EGCG cytotoxicity / growth of L1210 cells; assay type: cell-based, mouse; conditions: L1210; hypoxanthine-thymidine (HT) medium; EGCG 20 μM
Method: L1210 cells were plated at a density of 10,000 cells/ml in 96-well plates with a “standard folate” RPMI 1640 medium supplemented with 10% FCS. Reversion experiments were carried out in an HT medium and/or by adding 50 μM ascorbic acid (AA). Cell injury was evaluated by a calorimetric assay for mitochondrial function using the MTT test.^29
The effect of different EGCG concentrations on L1210 cell growth after 29 h of treatment at two different folic acid concentrations was determined. The cells were previously adapted over a period of 2-3 days to grow in folate-free RPMI 1640 medium supplemented with 10% dialyzed FCS and 2 mM glutamine. This medium is subsequently referred to as LF (low folate). For the cytotoxicity assay, the cells were grown in LF media supplemented with folic acid (3 μM or 300 nM). Treatments were carried out in triplicate, and each experiment performed at least twice. Cell growth was determined by two different methods, Coulter counter Z2 and hemocytometer (FIG. 7). IC50 values were determined at each folic acid concentration added to the medium.
The growth-inhibitory effects of 10 μM EGCG at various folic acid concentrations were determined at two different time intervals. L1210 cells were cultured in a LF medium supplemented with the corresponding folic acid concentration. The data were obtained by using a Coulter counter and hemocytometer and expressed assuming a zero percentage of growth inhibition for untreated control (FIG. 8). Cells were maintained in the corresponding medium with 100 μg/ml of penicillin and streptomycin at 37° C. in a humid 7.5% CO2, […] environment for all the experiments.

Chain of S. maltophilia DHFR (B2FPG1 entry or part of it): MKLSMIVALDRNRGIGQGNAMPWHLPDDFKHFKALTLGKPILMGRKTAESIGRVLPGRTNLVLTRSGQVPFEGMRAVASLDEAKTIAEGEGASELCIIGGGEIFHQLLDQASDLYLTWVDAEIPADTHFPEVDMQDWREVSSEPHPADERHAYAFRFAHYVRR

NC(=O)C1=CN([C@@H]2O[C@H](COP(=O)(O)OP(=O)(O)OC[C@H]3O[C@@H](n4cnc5c(N)ncnc54)[C@H](OP(=O)(O)O)[C@@H]3O)[C@@H](O)[C@H]2O)C=CC1 [NADPH]
Km (S. maltophilia DHFR; pH 8.0): 12 µM

COc1cc(Cc2cnc(N)nc2N)cc(OC)c1OC [trimethoprim]
Ki (S. maltophilia DHFR): 4690 nM | Type of inhibition observed (S. maltophilia DHFR): competitive (reversible) | effect of preincubation of the enzyme with inhibitor (S. maltophilia DHFR): did not produce any measurable inhibition

O=C(O[C@@H]1Cc2c(O)cc(O)cc2O[C@@H]1c1ccc(O)c(O)c1)c1cc(O)c(O)c(O)c1 [ECG, (−)-epicatechin gallate]
inhibition of DHFR activity (bovine liver DHFR): potent inhibitor | k5 (bovine liver DHFR): 0.11 min⁻¹ | k5/k6 (bovine liver DHFR): 7.1 ratio | k6 (bovine liver DHFR): 0.015 min⁻¹ | Ki (bovine liver DHFR; KI*, equilibrium binding to enzyme-NADPH complex): 6.55 nM | Ki (bovine liver DHFR; KI, initial binding to enzyme-NADPH complex, pH 7.58, 25° C.): 51.3 nM | inhibition of rHDHFR activity [1]: potent inhibitors

Nc1nc(=O)c2c([nH]1)NCC(CNc1ccc(C(=O)N[C@@H](CCC(=O)O)C(=O)O)cc1)=N2 [DHF, 7,8-dihydrofolate]
Km (S. maltophilia DHFR; pH 8.0): 1.8 µM

Oc1cc(O)c2c(c1)O[C@H](c1cc(O)c(O)c(O)c1)[C@H](O)C2 [EGC, (−)-epigallocatechin, reference compound]
inhibition of DHFR activity (bovine liver DHFR): did not inhibit | inhibition of rHDHFR activity [1]: did not inhibit

CN(Cc1cnc2nc(N)nc(N)c2n1)c1ccc(C(=O)N[C@@H](CCC(=O)O)C(=O)O)cc1 [methotrexate]
p16 methylation pattern (p16): reversal of hypermethylation was observed | growth inhibition in HT medium (L1210 cells): greatly attenuated | Type of inhibition observed (S. maltophilia DHFR; S. maltophilia DHFR): competitive (slow- | k1 (S. maltophilia DHFR; S. maltophilia DHFR, calculated by using Eqn. 3): 6.17e+07 M⁻¹ s⁻¹ | rate constant k2 (S. maltophilia DHFR; S. maltophilia DHFR, pH 8.0): 0.0011 s⁻¹
